Test results published in the supplement of paper PMC11061612.

What was measured:
Experiment in all cases: combination Emax (second highest fraction inhibited in the dose matrix, 72 h); higher = more inhibition; extreme values may be limits of the assay
[1] = system: KARPAS-45 (T-Lymphoblastic Leukemia)
In short: (§1)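 Cell lines grown in DMEM/F12 or RPMI with 10% FBS were plated in 1536-well plates and held 24 hours at 37°C, 5% CO2 before 72 hours of exposure to two-drug dose matrices, with DMSO typically at 0.2%. CellTiter-Glo 2.0 luminescence gave viability, which was converted to inhibition. Vehicle wells were set to 0 and blank wells to 1. Combination Emax is the second-highest inhibition in the matrix, and Bliss excess is the observed combination effect minus the expected EA + EB − EA·EB, where EA and EB are the single-agent effects.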

[2] = system: SU-DHL-8 (B-Cell Non-Hodgkin's Lymphoma)
In short: as §1

[3] = system: KM12 (Colorectal Carcinoma)
In short: as §1

[4] = system: TE-6 (Esophageal Squamous Cell Carcinoma)
In short: as §1

[5] = system: HL-60 (Acute Myeloid Leukemia)
In short: as §1

[6] = system: MS751 (Cervical Carcinoma)
In short: as §1

[7] = system: CHP-212 (Neuroblastoma)
In short: as §1

[8] = system: HDQ-P1 (Breast Carcinoma)
In short: as §1

[9] = system: DiFi (Colorectal Carcinoma)
In short: as §1

[10] = system: CAMA-1 (Breast Carcinoma)
In short: as §1

[11] = system: GR-ST (B-Lymphoblastic Leukemia)
In short: as §1

[12] = system: K-562 (Chronic Myelogenous Leukemia)
In short: as §1

[13] = system: WM-115 (Melanoma)
In short: as §1

[14] = system: BL-41 (Burkitt's Lymphoma)
In short: as §1

[15] = system: SW837 (Colorectal Carcinoma)
In short: as §1

[16] = system: MKN28 (Gastric Carcinoma)
In short: as §1

[17] = system: NCI-H1792 (Lung Adenocarcinoma)
In short: as §1

[18] = system: ES8 (Ewing's Sarcoma)
In short: as §1

[19] = system: SR (Other Blood Carcinomas)
In short: as §1

SMILES	combination Emax [1]	combination Emax [2]	combination Emax [3]	combination Emax [4]	combination Emax [5]	combination Emax [6]	combination Emax [7]	combination Emax [8]	combination Emax [9]	combination Emax [10]	combination Emax [11]	combination Emax [12]	combination Emax [13]	combination Emax [14]	combination Emax [15]	combination Emax [16]	combination Emax [17]	combination Emax [18]	combination Emax [19]
COc1nnc2ccc(N3CCC(c4ccc(OCCN5CCN(C)C(=O)[C@H]5C)cc4)CC3)nn12 [AZD5153] + CN(CC[C@H](CSC1=CC=CC=C1)NC2=C(C=C(C=C2)S(=O)(=O)NC(=O)C3=CC=C(C=C3)N4CCC(CC4)[C@H](C5=CC=CC=C5C6=CC=C(C=C6)Cl)O)S(=O)(=O)C(F)(F)F)CCO [AZD4320] (first compound max 1 µM, 7x7, partner max 1 µM)	1	1	0.648	0.81	0.994	0.726	0.896	0.967	0.818										
NC1(C(=O)N[C@@H](CCO)c2ccc(Cl)cc2)CCN(c2ncnc3[nH]ccc23)CC1 [Capivasertib] + CCN(CCO)CCCOc1ccc2c(Nc3cc(CC(=O)Nc4cccc(F)c4)[nH]n3)ncnc2c1 [AZD2811] (first compound max 10 µM, 7x7, partner max 1 µM)	0.979	0.324	0.77	0.673	0.859	0.632	0.749	0.321	0.658	0.768	0.702	0.245	0.583	0.706	0.261	0.206	0.34	1	0.957
CC(=O)c1c(C)c2cnc(Nc3ccc(N4CCNCC4)cn3)nc2n(C2CCCC2)c1=O [Palbociclib] + Cn1cnc2c(F)c(Nc3ccc(Br)cc3Cl)c(C(=O)NOCCO)cc21 [Selumetinib] (first compound max 10 µM, 7x7, partner max 10 µM)	0.964	0.32	0.768	0.425	0.667	0.236	0.979	0.289	0.751	0.102	0.726	0.237	0.415	0.433	0.532	0.3	0.651	0.823	0.873
C[C@@H](c1ccc2nccn2c1)n1nnc2ncc(-c3cnn(C)c3)nc21 [Savolitinib] + CN(CC[C@H](CSC1=CC=CC=C1)NC2=C(C=C(C=C2)S(=O)(=O)NC(=O)C3=CC=C(C=C3)N4CCC(CC4)[C@H](C5=CC=CC=C5C6=CC=C(C=C6)Cl)O)S(=O)(=O)C(F)(F)F)CCO [AZD4320] (first compound max 1 µM, 7x7, partner max 1 µM)	0.976	0.932	0.139	0.427	0.856	0.184	0.178	0.591	0.495										
C[C@@H](c1ccc2nccn2c1)n1nnc2ncc(-c3cnn(C)c3)nc21 [Savolitinib] + CC1(C)CCC(CN2CCN(c3ccc(C(=O)NS(=O)(=O)c4ccc(NCC5CCOCC5)c([N+](=O)[O-])c4)c(Oc4cnc5[nH]ccc5c4)c3)CC2)=C(c2ccc(Cl)cc2)C1 [Venetoclax] (first compound max 1 µM, 7x7, partner max 1 µM)	0.322	0.288	0.058	0.124	0.658	0.176	0.108	0.117	0.11	0.17	0.218	0.155	0.199	0.106	0.14	0.0564	0.108	0.259	0.437
NC1(C(=O)N[C@@H](CCO)c2ccc(Cl)cc2)CCN(c2ncnc3[nH]ccc23)CC1 [Capivasertib] + CC(C)n1c(=O)n(C)c2cnc3cc(F)c(-c4ccc(OCCCN5CCCCC5)nc4)cc3c21 [AZD1390] (first compound max 10 µM, 7x7, partner max 0.3 µM)	0.581	0.107	0.755	0.599	0.225	0.19	0.262	0.215	0.592	0.665	0.611	0.33	0.565	0.297	0.25	0.145	0.179	0.545	0.361
NC1(C(=O)N[C@@H](CCO)c2ccc(Cl)cc2)CCN(c2ncnc3[nH]ccc23)CC1 [Capivasertib] + C[C@@H]1COCCN1C2=NC(=NC(=C2)C3(CC3)[S@](=N)(=O)C)C4=C5C=CNC5=NC=C4 [AZD6738] (first compound max 10 µM, 7x7, partner max 10 µM)	0.854	0.964	0.91	0.754	0.805	0.498	0.829	0.422	0.779	0.684	0.809	0.866	0.628	0.981	0.385	0.296	0.767	0.961	0.954
NC1(C(=O)N[C@@H](CCO)c2ccc(Cl)cc2)CCN(c2ncnc3[nH]ccc23)CC1 [Capivasertib] + CC(=O)c1c(C)c2cnc(Nc3ccc(N4CCNCC4)cn3)nc2n(C2CCCC2)c1=O [Palbociclib] (first compound max 10 µM, 7x7, partner max 10 µM)	0.982	0.571	0.853	0.723	0.799	0.236	0.556	0.302	0.619	0.668	0.75	0.257	0.574	0.419	0.151	0.155	0.553	0.64	0.844
Cc1nc(Nc2ncc(C(=O)Nc3c(C)cccc3Cl)s2)cc(N2CCN(CCO)CC2)n1 [Dasatinib] + CC(=O)Nc1cccc(-n2c(=O)n(C3CC3)c(=O)c3c(Nc4ccc(I)cc4F)n(C)c(=O)c(C)c32)c1 [Trametinib] (first compound max 2 µM, 7x7, partner max 1 µM)	0.592	0.0526	0.714	0.535	0.703	0.282	1	0.958	0.784	0.127	0.361	0.747	0.805	0.144	0.764	0.417	1	0.223	0.245
Cn1cnc2c(F)c(Nc3ccc(Br)cc3Cl)c(C(=O)NOCCO)cc21 [Selumetinib] + CC(C)n1c(=O)n(C)c2cnc3cc(F)c(-c4ccc(OCCCN5CCCCC5)nc4)cc3c21 [AZD1390] (first compound max 10 µM, 7x7, partner max 0.3 µM)	0.0319	0.0761	0.657	0.388	0.743	0.144	0.923	0.248	0.641	0.0892	0.225	0.168	0.411	0.209	0.567	0.137	0.378	0.263	0.129
NC1(C(=O)N[C@@H](CCO)c2ccc(Cl)cc2)CCN(c2ncnc3[nH]ccc23)CC1 [Capivasertib] + COc1nnc2ccc(N3CCC(c4ccc(OCCN5CCN(C)C(=O)[C@H]5C)cc4)CC3)nn12 [AZD5153] (first compound max 10 µM, 7x7, partner max 1 µM)	1	0.899	0.847	0.754	1	0.794	0.932	0.416	0.718	0.928	0.832	0.528	0.778	0.974	0.538	0.488	0.537	0.798	0.769
Cn1cnc2c(F)c(Nc3ccc(Br)cc3Cl)c(C(=O)NOCCO)cc21 [Selumetinib] + C=CCn1c(=O)c2cnc(Nc3ccc(N4CCN(C)CC4)cc3)nc2n1-c1cccc(C(C)(C)O)n1 [AZD1775] (first compound max 10 µM, partner max 1 µM)	0.909	1	0.884	0.506	0.712	0.575	0.978	0.673	0.849	0.148	0.801	0.834	0.402	1	0.549	0.276	0.632	0.491	0.978
Cn1cnc2c(F)c(Nc3ccc(Br)cc3Cl)c(C(=O)NOCCO)cc21 [Selumetinib] + C[C@@H]1COCCN1C2=NC(=NC(=C2)C3(CC3)[S@](=N)(=O)C)C4=C5C=CNC5=NC=C4 [AZD6738] (first compound max 10 µM, 7x7, partner max 10 µM)	0.868	0.936	0.825	0.671	0.819	0.476	0.989	0.455	0.844	0.319	0.766	0.866	0.617	0.989	0.544	0.202	0.76	0.674	0.889
CC(=O)c1c(C)c2cnc(Nc3ccc(N4CCNCC4)cn3)nc2n(C2CCCC2)c1=O [Palbociclib] + CN(CC[C@H](CSC1=CC=CC=C1)NC2=C(C=C(C=C2)S(=O)(=O)NC(=O)C3=CC=C(C=C3)N4CCC(CC4)[C@H](C5=CC=CC=C5C6=CC=C(C=C6)Cl)O)S(=O)(=O)C(F)(F)F)CCO [AZD4320] (first compound max 10 µM, 7x7, partner max 1 µM)	1	1	0.768	0.363	0.956	0.159	0.829	0.677	0.812										
